From US9321773B2, “Compounds” (Respivert Ltd, priority 2009, dated 2016)
pIC50: −log10 of the molar value. Like-named read-outs stand apart in the source and are kept apart here.

Tests used:
[1] = test system: H2O2 induced pAkt in D-U937 cells; assay: PI3Kδ Cell Based Assay (H2O2 induced pAkt); conditions: Homo sapiens, dU937; for pIC50: activity range, D-U937 cells, read-out: Cellular Activity IC50 values (H2O2 induced pAkt D-U937 Cells)
Description: As a means of assessing PI3K 6 activation in response to stimuli, the phosphorylation status of the protein, Akt, a downstream product of PI3K6, signaling was determined. Human monocytic cells (U937 cells), were differentiated to macrophage-type cells by incubation with phorbol myristate acetate (PMA; 100 ng/mL) for 48 to 72 hr. […] The cells were washed with buffer (PBS containing 0.1% Triton X-100) and were incubated with blocking solution (1% BSA in PBS) for 1 hr and were then re-washed with buffer and incubated overnight with either anti-pAkt antibody or anti-pan-Akt antibody (both from Cell Signaling Technology). […] This reaction was stopped by addition of 100 μL of 1N H2SO4 solution. […] The ratio of pAkt signal to total Akt signal was used to quantitate the extent of PI3K δ activation. […] The IC50 values were calculated from the concentration-response curves generated by the serial dilutions of the test compounds (Table 3 and Table 4).

[2] = target: recombinant PI3 kinase α (Homo sapiens (Human), UniProt P42336); assay: Enzyme Inhibition Assay (HTRF PI3K enzyme assay, TR-FRET); type: biochemical; conditions: for pIC50: activity range, read-out: PI3 Kinase Inhibition IC50 values at stated Isozyme α
Excerpt: (§1) PI3 kinases catalyse the phosphorylation of phosphatidylinositol 4,5-biphosphate (PIP2) to phosphatidylinositol 3,4,5-triphosphate (PIP3) in the presence of ATP and Mg^2+ ions. The PIP3 product can be detected by displacement of biotin-PIP3 from energy transfer complexes consisting of europium labelled anti-GST monoclonal antibody, a GST-tagged Pleckstrin homology (PH) domain, biotinylated PIP3 and streptavidin-allophycocyanin (APC) by the time-resolved fluorescence resonance energy transfer (TR-FRET) (HTRF® PI3K enzyme assay, Millipore). […] The PIP3 product formed by PI3K activity displaces biotin-PIP3 from the complex and results in a loss of energy transfer (decreasing signal).
(§2) The compound to be tested was added, at the desired final concentrations, to a mixture of PIP2 substrate and recombinant PI3 kinase α, δ or γ enzymes (Millipore), and the mixture incubated for 2 hr at RT. […] A stopping solution containing biotinylated PIP3 and the detection mix containing the GST tagged GRP1 pleckstrin homology (PH) domain and fluorophores were then added and the mixture was incubated at RT for 15-18 hr, prior to detection in a fluorescence microplate reader (Varioskan® Flash, ThermoFisher Scientific).

[3] = target: recombinant PI3 kinase δ (Homo sapiens (Human), UniProt O00329); assay: as above; type: biochemical; conditions: for pIC50: activity range, read-out: PI3 Kinase Inhibition IC50 values at stated Isozyme δ
Excerpt: as §1, §2

[4] = target: recombinant PI3 kinase γ (Homo sapiens (Human), UniProt P48736); assay: as above; type: biochemical; conditions: for pIC50: activity range, read-out: PI3 Kinase Inhibition IC50 values at stated Isozyme γ
Excerpt: as §1, §2

[5] = test system: PMA-differentiated U937 cells; assay: MTT Assay (cell viability); type: cell-based, Human; conditions: percentage loss of cell viability; for Cell Viability MTT Assay in D-U937 cells at 4 hr: 4 hr in 5% FCS; for Cell Viability MTT Assay in D-U937 cells at 24 hr: 24 hr in 10% FCS
Description: PMA-differentiated U937 cells were pre-incubated with compound for 4 hr in 5% FCS or 10% FCS for 24 hr. The supernatant was replaced with 200 μL of new media and 10 μL of MTT stock solution (5 mg/ml) added to each well. After 1 hr incubation, the media were removed, 200 μL of DMSO added to each well and the plates were shaken lightly for 1 hr prior to reading the absorbance at 550 nm. The percentage loss of cell viability was calculated for each well relative to vehicle (0.5% DMSO)-treatment (Table 3).

Sequence of recombinant PI3 kinase δ (O00329 whole entry): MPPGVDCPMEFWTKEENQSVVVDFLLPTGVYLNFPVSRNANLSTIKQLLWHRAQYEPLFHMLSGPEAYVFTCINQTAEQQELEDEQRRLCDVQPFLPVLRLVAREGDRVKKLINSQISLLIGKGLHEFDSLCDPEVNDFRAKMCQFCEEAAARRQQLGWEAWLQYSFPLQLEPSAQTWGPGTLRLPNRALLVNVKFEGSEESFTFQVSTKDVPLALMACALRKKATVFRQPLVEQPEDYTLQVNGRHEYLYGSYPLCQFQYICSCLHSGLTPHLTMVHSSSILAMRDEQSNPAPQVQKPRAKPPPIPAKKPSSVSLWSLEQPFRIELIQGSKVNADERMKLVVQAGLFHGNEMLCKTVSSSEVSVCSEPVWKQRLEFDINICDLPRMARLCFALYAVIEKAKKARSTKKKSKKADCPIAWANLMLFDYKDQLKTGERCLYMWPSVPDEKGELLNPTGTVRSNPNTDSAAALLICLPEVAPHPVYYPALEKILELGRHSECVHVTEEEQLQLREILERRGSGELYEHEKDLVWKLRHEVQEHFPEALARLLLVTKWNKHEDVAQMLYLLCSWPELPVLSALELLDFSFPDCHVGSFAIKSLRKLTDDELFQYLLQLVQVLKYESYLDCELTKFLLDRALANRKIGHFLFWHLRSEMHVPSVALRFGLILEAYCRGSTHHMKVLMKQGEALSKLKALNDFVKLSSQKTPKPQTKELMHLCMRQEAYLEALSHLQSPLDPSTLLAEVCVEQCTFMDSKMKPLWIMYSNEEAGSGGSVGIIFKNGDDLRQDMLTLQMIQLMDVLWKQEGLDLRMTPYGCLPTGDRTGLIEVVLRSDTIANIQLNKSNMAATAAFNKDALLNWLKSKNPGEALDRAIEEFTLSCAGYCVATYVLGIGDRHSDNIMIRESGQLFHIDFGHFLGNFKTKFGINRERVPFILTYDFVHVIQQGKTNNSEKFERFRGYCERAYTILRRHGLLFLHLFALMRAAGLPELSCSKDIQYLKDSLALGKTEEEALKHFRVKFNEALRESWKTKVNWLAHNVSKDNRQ
Sequence of recombinant PI3 kinase δ (P27986 whole entry partner): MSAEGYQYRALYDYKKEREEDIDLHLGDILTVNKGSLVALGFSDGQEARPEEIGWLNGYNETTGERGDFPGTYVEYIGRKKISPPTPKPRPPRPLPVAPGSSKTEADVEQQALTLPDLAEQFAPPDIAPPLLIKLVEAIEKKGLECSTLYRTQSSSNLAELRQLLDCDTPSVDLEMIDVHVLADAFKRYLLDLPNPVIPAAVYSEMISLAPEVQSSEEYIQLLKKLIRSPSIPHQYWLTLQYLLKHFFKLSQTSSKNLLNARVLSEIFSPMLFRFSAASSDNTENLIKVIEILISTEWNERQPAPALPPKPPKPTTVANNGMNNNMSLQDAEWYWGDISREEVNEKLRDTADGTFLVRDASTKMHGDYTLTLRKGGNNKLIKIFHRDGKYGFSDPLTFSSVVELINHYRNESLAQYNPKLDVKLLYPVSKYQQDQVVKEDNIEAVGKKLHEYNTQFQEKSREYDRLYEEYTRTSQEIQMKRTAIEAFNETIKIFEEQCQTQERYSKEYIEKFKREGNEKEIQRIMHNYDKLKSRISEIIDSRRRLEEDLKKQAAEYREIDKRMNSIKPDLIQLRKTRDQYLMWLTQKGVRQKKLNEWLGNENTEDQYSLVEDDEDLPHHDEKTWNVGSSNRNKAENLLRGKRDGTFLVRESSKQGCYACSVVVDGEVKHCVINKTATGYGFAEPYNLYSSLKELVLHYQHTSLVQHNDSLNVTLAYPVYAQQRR
Sequence of recombinant PI3 kinase α (P42336 whole entry): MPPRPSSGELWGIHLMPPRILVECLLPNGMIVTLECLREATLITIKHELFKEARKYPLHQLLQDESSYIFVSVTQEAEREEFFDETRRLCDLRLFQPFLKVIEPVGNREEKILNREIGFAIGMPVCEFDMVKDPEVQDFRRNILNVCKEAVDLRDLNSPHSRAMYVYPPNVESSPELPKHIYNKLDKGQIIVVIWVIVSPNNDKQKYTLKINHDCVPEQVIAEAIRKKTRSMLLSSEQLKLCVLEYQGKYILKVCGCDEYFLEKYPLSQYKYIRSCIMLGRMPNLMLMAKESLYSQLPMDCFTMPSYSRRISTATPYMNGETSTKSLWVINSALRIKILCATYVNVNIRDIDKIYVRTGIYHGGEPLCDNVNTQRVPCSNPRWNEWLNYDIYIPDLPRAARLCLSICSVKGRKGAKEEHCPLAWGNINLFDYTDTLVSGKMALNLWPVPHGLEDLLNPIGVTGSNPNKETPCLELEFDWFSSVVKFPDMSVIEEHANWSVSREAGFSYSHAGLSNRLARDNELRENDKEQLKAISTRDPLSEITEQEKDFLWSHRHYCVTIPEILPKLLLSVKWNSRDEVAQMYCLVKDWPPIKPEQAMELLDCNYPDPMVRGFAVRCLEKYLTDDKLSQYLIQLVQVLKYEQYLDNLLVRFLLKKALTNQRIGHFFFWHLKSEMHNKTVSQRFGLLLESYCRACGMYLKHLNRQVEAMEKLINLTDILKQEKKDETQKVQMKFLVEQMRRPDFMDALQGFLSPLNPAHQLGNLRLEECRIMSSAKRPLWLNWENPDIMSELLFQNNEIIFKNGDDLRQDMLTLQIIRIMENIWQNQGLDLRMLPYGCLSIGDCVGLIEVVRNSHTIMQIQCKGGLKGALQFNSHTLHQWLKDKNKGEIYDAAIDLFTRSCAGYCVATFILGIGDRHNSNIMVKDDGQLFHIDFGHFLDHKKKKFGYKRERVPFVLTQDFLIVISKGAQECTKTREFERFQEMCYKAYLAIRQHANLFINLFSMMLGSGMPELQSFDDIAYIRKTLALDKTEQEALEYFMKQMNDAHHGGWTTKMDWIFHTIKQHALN
Sequence of recombinant PI3 kinase α (P27986 whole entry partner): as the sequence (P27986 whole entry partner) above
Sequence of recombinant PI3 kinase γ (P48736 whole entry): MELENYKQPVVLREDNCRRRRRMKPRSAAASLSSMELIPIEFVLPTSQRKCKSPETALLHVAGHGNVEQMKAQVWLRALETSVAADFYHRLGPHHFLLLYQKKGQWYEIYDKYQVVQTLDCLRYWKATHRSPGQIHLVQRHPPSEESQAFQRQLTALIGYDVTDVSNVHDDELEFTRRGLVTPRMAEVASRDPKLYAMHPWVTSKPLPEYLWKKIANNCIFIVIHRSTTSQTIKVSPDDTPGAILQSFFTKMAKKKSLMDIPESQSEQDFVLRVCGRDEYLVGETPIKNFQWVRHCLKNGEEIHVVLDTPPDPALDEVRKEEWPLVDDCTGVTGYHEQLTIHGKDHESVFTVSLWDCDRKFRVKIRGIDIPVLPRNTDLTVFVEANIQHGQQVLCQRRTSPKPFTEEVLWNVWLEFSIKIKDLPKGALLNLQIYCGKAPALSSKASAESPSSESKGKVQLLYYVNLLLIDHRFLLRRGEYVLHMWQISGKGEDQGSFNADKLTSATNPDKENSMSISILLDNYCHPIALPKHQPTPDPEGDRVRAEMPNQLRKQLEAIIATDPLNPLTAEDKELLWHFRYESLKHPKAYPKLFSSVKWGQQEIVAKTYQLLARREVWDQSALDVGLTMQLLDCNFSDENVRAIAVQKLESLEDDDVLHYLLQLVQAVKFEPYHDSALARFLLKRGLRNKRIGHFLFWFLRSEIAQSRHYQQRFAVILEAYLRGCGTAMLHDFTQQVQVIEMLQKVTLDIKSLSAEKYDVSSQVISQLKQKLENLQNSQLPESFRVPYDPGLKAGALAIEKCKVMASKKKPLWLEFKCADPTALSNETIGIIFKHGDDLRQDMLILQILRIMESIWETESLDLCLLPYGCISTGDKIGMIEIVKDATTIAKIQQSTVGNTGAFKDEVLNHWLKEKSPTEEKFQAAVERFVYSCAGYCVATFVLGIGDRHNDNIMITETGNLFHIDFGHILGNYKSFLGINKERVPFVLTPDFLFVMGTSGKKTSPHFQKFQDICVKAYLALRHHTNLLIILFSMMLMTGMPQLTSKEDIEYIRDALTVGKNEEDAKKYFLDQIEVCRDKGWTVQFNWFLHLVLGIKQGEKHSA

COCCN(CCCC#Cc1cccc2nc(Cn3nc(-c4ccc(O)cc4)c4c(N)ncnc43)n(Cc3ccccc3Cl)c(=O)c12)CCOC [Example 73, 2-((4-Amino-3-(4-hydroxyphenyl)-1H-pyrazolo[3,4-d]pyrimidin-1-yl)methyl)-5-(5-(bis(2-methoxyethyl)amino)pent-1-ynyl)-3-(2-chlorobenzyl)quinazolin-4(3H)-one]
pIC50 [1]: > 8.00
pIC50 [2]: 6.00 to 7.30
pIC50 [3]: > 7.30
pIC50 [4]: > 7.30
Cell Viability MTT Assay in D-U937 cells at 4 hr [5]: − (− <30%)
Cell Viability MTT Assay in D-U937 cells at 24 hr [5]: − (− <30%)

Nc1ncnc2c1c(-c1cccc(O)c1)nn2Cc1nc2cccc(C#CCCCCC(=O)O)c2c(=O)n1Cc1ccccc1Cl [Example 60, 7-(2-((4-Amino-3-(3-hydroxyphenyl)-1H-pyrazolo[3,4-d]pyrimidin-1-yl)methyl)-3-(2-chlorobenzyl)-4-oxo-3,4-dihydroquinazolin-5-yl)hept-6-ynoic acid]
pIC50 [1]: > 8.00
pIC50 [2]: 6.00 to 7.30
pIC50 [3]: > 7.30
pIC50 [4]: > 7.30
Cell Viability MTT Assay in D-U937 cells at 4 hr [5]: − (− <30%)
Cell Viability MTT Assay in D-U937 cells at 24 hr [5]: − (− <30%)

C#Cc1cccc2nc(Cn3nc(-c4ccc(O)cc4)c4c(N)ncnc43)n(Cc3ccc(OC)cc3)c(=O)c12 [Example 46, 2-((4-Amino-3-(4-hydroxyphenyl)-1H-pyrazolo[3,4-d]pyrimidin-1-yl)methyl)-5-ethynyl-3-(4-methoxybenzyl)quinazolin-4(3H)-one]
pIC50 [1]: > 8.00
pIC50 [2]: 6.00 to 7.30
pIC50 [3]: > 7.30
pIC50 [4]: 6.00 to 7.30
Cell Viability MTT Assay in D-U937 cells at 4 hr [5]: − (− <30%)
Cell Viability MTT Assay in D-U937 cells at 24 hr [5]: − (− <30%)

Nc1ncnc2c1c(-c1cccc(O)c1)nn2Cc1nc2cccc(C#CCCCC(=O)N3CCC(N4CCOCC4)CC3)c2c(=O)n1Cc1ccccc1Cl [Example 70, 2-((4-Amino-3-(3-hydroxyphenyl)-1H-pyrazolo[3,4-d]pyrimidin-1-yl)methyl)-3-(2-chlorobenzyl)-5-(6-(4-morpholinopiperidin-1-yl)-6-oxohex-1-yn-1-yl)quinazolin-4(3H)-one]
pIC50 [1]: > 8.00
pIC50 [2]: 6.00 to 7.30
pIC50 [3]: > 7.30
pIC50 [4]: > 7.30
Cell Viability MTT Assay in D-U937 cells at 4 hr [5]: − (− <30%)
Cell Viability MTT Assay in D-U937 cells at 24 hr [5]: − (− <30%)

Nc1ncnc2c1c(-c1ccc(O)cc1)nn2Cc1nc2cccc(C#CCCCC(=O)Nc3ccncc3)c2c(=O)n1Cc1ccccc1Cl [Example 79, 6-(2-((4-Amino-3-(4-hydroxyphenyl)-1H-pyrazolo[3,4-d]pyrimidin-1-yl)methyl)-3-(2-chlorobenzyl)-4-oxo-3,4-dihydroquinazolin-5-yl)-N-(pyridin-4-yl)hex-5-ynamide]
pIC50 [1]: > 8.00
pIC50 [2]: 6.00 to 7.30
pIC50 [3]: > 7.30
pIC50 [4]: 6.00 to 7.30
Cell Viability MTT Assay in D-U937 cells at 4 hr [5]: − (− <30%)
Cell Viability MTT Assay in D-U937 cells at 24 hr [5]: − (− <30%)

Nc1ncnc2c1c(-c1ccc(O)cc1)nn2Cc1nc2cccc(C#CCCCC(=O)N3CCCC3)c2c(=O)n1Cc1ccccc1Cl [Example 89, 2-((4-Amino-3-(4-hydroxyphenyl)-1H-pyrazolo[3,4-d]pyrimidin-1-yl)methyl)-3-(2-chlorobenzyl)-5-(6-oxo-6-(pyrrolidin-1-yl)hex-1-yn-1-yl)quinazolin-4(3H)-one]
pIC50 [1]: > 8.00
IC50 ([1]; read-out: Cellular Activity IC50 values (H2O2 induced pAkt (nM) D-U937 Cells)): 0.2 nM
pIC50 [2]: < 6.00
IC50 ([2]; read-out: PI3 Kinase Inhibition IC50 values at stated Isozyme (nM) α): 1490 nM
pIC50 [3]: > 7.30
IC50 ([3]; read-out: PI3 Kinase Inhibition IC50 values at stated Isozyme (nM) δ): 3 nM
pIC50 [4]: > 7.30
IC50 ([4]; read-out: PI3 Kinase Inhibition IC50 values at stated Isozyme (nM) γ): 47 nM
Cell Viability MTT Assay in D-U937 cells at 4 hr [5]: − (− <30%)
Cell Viability MTT Assay in D-U937 cells at 24 hr [5]: − (− <30%)

Nc1ncnc2c1c(-c1cccc(O)c1)nn2Cc1nc2cccc(C#CCCC(=O)N3CCOCC3)c2c(=O)n1Cc1ccccc1Cl [Example 56]
pIC50 [1]: > 8.00
pIC50 [2]: > 7.30
pIC50 [3]: > 7.30
pIC50 [4]: > 7.30
Cell Viability MTT Assay in D-U937 cells at 4 hr [5]: − (− <30%)
Cell Viability MTT Assay in D-U937 cells at 24 hr [5]: − (− <30%)

Cn1cc(Cn2c(Cn3nc(-c4cccc(O)c4)c4c(N)ncnc43)nc3cccc(C#CCCCC(=O)N4CCOCC4)c3c2=O)cn1 [Example 66]
pIC50 [1]: > 8.00
pIC50 [2]: 6.00 to 7.30
pIC50 [3]: > 7.30
pIC50 [4]: > 7.30
Cell Viability MTT Assay in D-U937 cells at 4 hr [5]: − (− <30%)
Cell Viability MTT Assay in D-U937 cells at 24 hr [5]: + (+ >30%)

COC(=O)c1cccc(Cn2c(Cn3nc(-c4cccc(O)c4)c4c(N)ncnc43)nc3cccc(C#CCCCC(=O)N4CCOCC4)c3c2=O)c1 [Example 65, Methyl 3-((2-((4-amino-3-(3-hyroxyphenyl)-1H-pyrazolo[3,4-d]pyrimidin-1-yl)methyl)-5-(6-morpholino-6-oxohex-1-yn-1-yl)-4-oxoquinazolin-3(4H)-yl)methyl)benzoate]
pIC50 [1]: > 8.00
pIC50 [2]: 6.00 to 7.30
pIC50 [3]: > 7.30
pIC50 [4]: > 7.30
Cell Viability MTT Assay in D-U937 cells at 4 hr [5]: − (− <30%)
Cell Viability MTT Assay in D-U937 cells at 24 hr [5]: − (− <30%)

Nc1ncnc2c1c(-c1ccc(O)cc1)nn2Cc1nc2cccc(C#CCOCc3ccccc3)c2c(=O)n1Cc1ccccc1Cl [Example 40, 2-((4-Amino-3-(4-hydroxyphenyl)-1H-pyrazolo[3,4-d]pyrimidin-1-yl)methyl)-5-(3-(benzyloxy)prop-1-ynyl)-3-(2-chlorobenzyl)quinazolin-4(3H)-one]
pIC50 [1]: > 8.00
pIC50 [2]: 6.00 to 7.30
pIC50 [3]: > 7.30
pIC50 [4]: 6.00 to 7.30
Cell Viability MTT Assay in D-U937 cells at 4 hr [5]: − (− <30%)
Cell Viability MTT Assay in D-U937 cells at 24 hr [5]: − (− <30%)

CCN(CC)C(=O)CCCC#Cc1cccc2nc(Cn3nc(-c4ccc(O)cc4)c4c(N)ncnc43)n(Cc3ccccc3Cl)c(=O)c12 [Example 59, 6-(2-((4-Amino-3-(4-hydroxyphenyl)-1H-pyrazolo[3,4-d]pyrimidin-1-yl)methyl)-3-(2-chlorobenzyl)-4-oxo-3,4-dihydroquinazolin-5-yl)-N,N-diethylhex-5-ynamide]
pIC50 [1]: > 8.00
pIC50 [2]: 6.00 to 7.30
pIC50 [3]: > 7.30
pIC50 [4]: > 7.30
Cell Viability MTT Assay in D-U937 cells at 4 hr [5]: − (− <30%)
Cell Viability MTT Assay in D-U937 cells at 24 hr [5]: − (− <30%)

COCC#Cc1cccc2nc(Cn3nc(-c4ccc(O)cc4)c4c(N)ncnc43)n(Cc3cccc(OC)c3)c(=O)c12 [Example 27, 2-((4-Amino-3-(4-hydroxyphenyl)-1H-pyrazolo[3,4-d]pyrimidin-1-yl)methyl)-3-(3-methoxybenzyl)-5-(3-methoxyprop-1-ynyl)quinazolin-4(3H)-one]
pIC50 [1]: > 8.00
pIC50 [2]: 6.00 to 7.30
pIC50 [3]: > 7.30
pIC50 [4]: 6.00 to 7.30
Cell Viability MTT Assay in D-U937 cells at 4 hr [5]: − (− <30%)
Cell Viability MTT Assay in D-U937 cells at 24 hr [5]: − (− <30%)

C#Cc1cccc2nc(Cn3nc(-c4ccc(O)cc4)c4c(N)ncnc43)n(Cc3ccccc3C(F)(F)F)c(=O)c12 [Example 45, 2-((4-Amino-3-(4-hydroxyphenyl)-1H-pyrazolo[3,4-d]pyrimidin-1-yl)methyl)-5-ethynyl-3-(2-trifluoromethylbenzyl)quinazolin-4(3H)-one]
pIC50 [1]: > 8.00
pIC50 [2]: 6.00 to 7.30
pIC50 [3]: > 7.30
pIC50 [4]: 6.00 to 7.30
Cell Viability MTT Assay in D-U937 cells at 4 hr [5]: − (− <30%)
Cell Viability MTT Assay in D-U937 cells at 24 hr [5]: − (− <30%)

Nc1ncnc2c1c(-c1ccc(O)cc1)nn2Cc1nc2cccc(C#CCC3CCCC3)c2c(=O)n1Cc1ccccc1Cl [Example 39, 2-((4-Amino-3-(4-hydroxyphenyl)-1H-pyrazolo[3,4-d]pyrimidin-1-yl)methyl)-3-(2-chlorobenzyl)-5-(3-cyclopentylprop-1-ynyl)quinazolin-4(3H)-one]
pIC50 [1]: > 8.00
pIC50 [2]: > 7.30
pIC50 [3]: > 7.30
pIC50 [4]: 6.00 to 7.30
Cell Viability MTT Assay in D-U937 cells at 4 hr [5]: − (− <30%)
Cell Viability MTT Assay in D-U937 cells at 24 hr [5]: − (− <30%)
